Results: patent US11878965B2, “Inhibitors of peptidylarginine deiminases” (Gilead Sciences, Inc., priority 2020, dated 2024)

Target: human PAD4 (Homo sapiens (Human), UniProt Q9UM07)
Test: In Vitro PAD4 BAEE Biochemical Assay
Settings: geometric mean of multiple experiments
How it was run: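 Recombinant human PAD4 (His-SUMO tag removed, E. coli-expressed), 5 nM, preincubated with compound and 2 mM CaCl2 30 min at 25 °C in MOPS pH 7.6 with DTT; 3 mM BAEE added for 2 h at 25 °C, EDTA stop. Released ammonia detected by o-phthalaldehyde/DTT fluorescence (ex 405, em 535 nm).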

[1] = human PAD4, BAEE substrate, 5 nM PAD4, 2 mM calcium chloride, 3 mM BAEE
[2] = recombinant PAD4 5 nM, 2 mM calcium chloride, 3 mM BAEE substrate

human PAD4, sequence (Q9UM07 2-663): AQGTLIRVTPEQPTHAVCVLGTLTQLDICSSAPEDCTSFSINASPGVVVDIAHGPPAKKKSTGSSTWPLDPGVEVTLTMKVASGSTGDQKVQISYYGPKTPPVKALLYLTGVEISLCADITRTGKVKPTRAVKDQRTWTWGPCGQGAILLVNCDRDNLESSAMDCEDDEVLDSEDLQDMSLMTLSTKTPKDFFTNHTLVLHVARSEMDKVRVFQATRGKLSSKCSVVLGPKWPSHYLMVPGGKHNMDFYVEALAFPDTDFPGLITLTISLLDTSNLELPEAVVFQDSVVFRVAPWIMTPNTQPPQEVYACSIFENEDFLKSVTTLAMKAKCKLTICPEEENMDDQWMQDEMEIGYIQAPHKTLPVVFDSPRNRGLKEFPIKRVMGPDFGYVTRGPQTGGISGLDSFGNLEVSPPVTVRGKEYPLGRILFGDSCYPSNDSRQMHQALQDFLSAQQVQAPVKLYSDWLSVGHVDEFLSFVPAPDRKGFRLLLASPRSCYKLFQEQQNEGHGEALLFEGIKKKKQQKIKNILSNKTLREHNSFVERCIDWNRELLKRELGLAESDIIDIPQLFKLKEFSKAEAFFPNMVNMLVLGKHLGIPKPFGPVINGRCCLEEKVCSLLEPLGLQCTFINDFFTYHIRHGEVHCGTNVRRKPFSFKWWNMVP

| SMILES | IC50 [1] [nM] | IC50 [2] [nM] |
| --- | --- | --- |
| COc1cc(C(=O)N2C[C@H](N)CC[C@@H]2C)cc2nc(-c3cc4ccc(-c5c(C)ccnc5-c5cnc(C)s5)nc4n3CC3CC3)n(C)c12 [Example 268, ((2S,5R)-5-amino-2-methylpiperidin-1-yl)(2-(1-(cyclopropylmethyl)-6-(4-methyl-2-(2-methylthiazol-5-yl)pyridin-3-yl)-1H-pyrrolo[2,3-b]pyridin-2-yl)-7-methoxy-1-methyl-1H-benzo[d]imidazol-5-yl)methanone] | 386 |  |
| COc1cc(C(=O)N2C[C@H](N)CCN2C)cc2nc(-c3cc4ccc([C@@H](C)NC(=O)C(C)(C)C)nc4n3CC3CC3)n(C)c12 [Example 161, N-((R)-1-(2-(5-((R)-5-amino-2-methylhexahydropyridazine-1-carbonyl)-7-methoxy-1-methyl-1H-benzo[d]imidazol-2-yl)-1-(cyclopropylmethyl)-1H-pyrrolo[2,3-b]pyridin-6-yl)ethyl)pivalamide] | 72.3 |  |
| Cc1cc2c(cc1C(=O)N1CCC[C@@H](N)C1)nc(-c1cc3ccc(N(C(F)F)S(C)(=O)=O)nc3n1CC1CC1)n2C [Example 58, (R)-N-(2-(5-(3-aminopiperidine-1-carbonyl)-1,6-dimethyl-1H-benzo[d]imidazol-2-yl)-1-(cyclopropylmethyl)-1H-pyrrolo [2,3-b]pyridin-6-yl)-N-(difluoromethyl) methanesulfonamide] | 4340 |  |
| CCN(c1ccc2cc(-c3nc4cc(C(=O)N5CCC[C@@H](N)C5)cc(OC)c4n3C)n(CC3CC3)c2n1)S(C)(=O)=O [Example 5, (R)-N-(2-(5-(3-aminopiperidine-1-carbonyl)-7-methoxy-1-methyl-1H-benzo[d]imidazol-2-yl)-1-(cyclopropylmethyl)-1H-pyrrolo [2,3-b]pyridin-6-yl)-N-ethylmethanesulfonamide] | 78.6 |  |
| COc1cc(C(=O)N2C[C@H](N)CCN2C)cc2nc(-c3cc4ccc([C@@H](C)NC(=O)C5(C(F)F)CC5)nc4n3CC3CC3)n(C)c12 [Example 191, N-((R)-1-(2-(5-((R)-5-amino-2-methylhexahydropyridazine-1-carbonyl)-7-methoxy-1-methyl-1H-benzo[d]imidazol-2-yl)-1-(cyclopropylmethyl)-1H-pyrrolo[2,3-b]pyridin-6-yl)ethyl)-1-(difluoromethyl)cyclopropane-1-carboxamide] | 82.4 |  |
| COC(=O)N(c1ccc2cc(-c3nc4cc(C(=O)N5CCC[C@@H](N)C5)cc(OC)c4n3C)n(CC3CC3)c2n1)C1CCC1 [Example 110, (R)-methyl (2-(5-(3-aminopiperidine-1-carbonyl)-7-methoxy-1-methyl-1H-benzo[d]imidazol-2-yl)-1-(cyclopropylmethyl)-1H-pyrrolo[2,3-b]pyridin-6-yl) (cyclobutyl)carbamate] | 509 |  |
| COc1cc(C(=O)N2C[C@H](N)CCN2C)cc2nc(-c3cc4ccc([C@@H](C)NC(=O)C5(CC(F)F)CC5)nc4n3CC3CC3)n(C)c12 [Example 193, N-((R)-1-(2-(5-((R)-5-amino-2-methylhexahydropyridazine-1-carbonyl)-7-methoxy-1-methyl-1H-benzo[d]imidazol-2-yl)-1-(cyclopropylmethyl)-1H-pyrrolo[2,3-b]pyridin-6-yl)ethyl)-1-(2,2-difluoroethyl)cyclopropane-1-carboxamide] | 142 |  |
| COc1cc(C(=O)N2CCC[C@@H](N)C2)cc2nc(-c3cc4ccc(S(C)(=O)=O)nc4n3CC3CC3)n(C)c12 [Example 253, (R)-(3-aminopiperidin-1-yl)(2-(1-(cyclopropylmethyl)-6-(methylsulfonyl)-1H-pyrrolo[2,3-b]pyridin-2-yl)-7-methoxy-1-methyl-1H-benzo[d]imidazol-5-yl)methanone] | 797 |  |
| COc1cc(C(=O)N2C[C@H](N)[C@@H]3CC[C@H]2C3)cc2nc(-c3cc4ccc([C@@H](C)NC(=O)C(C)(C)C)nc4n3CC(C)(C)O)n(C)c12 [Example 330, N-((R)-1-(2-(5-((1S,4R,5R)-4-amino-2-azabicyclo[3.2.1]octane-2-carbonyl)-7-methoxy-1-methyl-1H-benzo[d]imidazol-2-yl)-1-(2-hydroxy-2-methylpropyl)-1H-pyrrolo[2,3-b]pyridin-6-yl)ethyl)pivalamide] |  | 253 |
| COc1cc(C(=O)N2C[C@H](N)[C@@H]3CC[C@H]2C3)cc2nc(-c3cc4ccc([C@@H](C)NC(=O)c5cnc(C(F)F)nc5)nc4n3CC3CC3)n(C)c12 [Example 315, N-((R)-1-(2-(5-((1S,4R,5R)-4-amino-2-azabicyclo[3.2.1]octane-2-carbonyl)-7-methoxy-1-methyl-1H-benzo[d]imidazol-2-yl)-1-(cyclopropylmethyl)-1H-pyrrolo[2,3-b]pyridin-6-yl)ethyl)-2-(difluoromethyl)pyrimidine-5-carboxamide] |  | 81.3 |
| CS(=O)(=O)N(c1ccc2cc(-c3nc4cc(C(=O)N5[C@@H]6CC[C@@H](N)[C@H]5CC6)ccc4n3C3CC3)n(CC3CC3)c2n1)C(F)F [Example 56, N-(2-(5-((1R,2R,5R)-2-amino-8-azabicyclo[3.2.1]octane-8-carbonyl)-1-cyclopropyl-1H-benzo[d]imidazol-2-yl)-1-(cyclopropylmethyl)-1H-pyrrolo[2,3-b]pyridin-6-yl)-N-(difluoromethyl) methanesulfonamide] | 36.2 |  |
| CCN(c1ccc2cc(-c3nc4cc(C(=O)N5CC(N)CCC5C)cc(OC)c4n3C)n(CC3CC3)c2n1)S(C)(=O)=O (stereo not drawn) [Example 29, N-(2-(5-(5-amino-2-methylpiperidine-1-carbonyl)-7-methoxy-1-methyl-1H-benzo[d]imidazol-2-yl)-1-(cyclopropylmethyl)-1H-pyrrolo [2,3-b]pyridin-6-yl)-N-ethylmethanesulfonamide] | 173 |  |
| COc1cc(C(=O)N2CCC[C@@H](N)C2)cc2nc(-c3cc4ccc(NC(C)(C)C)nc4n3CC3CC3)n(C)c12 [Example 278, (R)-(3-aminopiperidin-1-yl)(2-(6-(tert-butylamino)-1-(cyclopropylmethyl)-1H-pyrrolo[2,3-b]pyridin-2-yl)-7-methoxy-1-methyl-1H-benzo[d]imidazol-5-yl)methanone] | 9340 |  |
| C[C@@H](NC(=O)C12CC(C#N)(C1)C2)c1ccc2cc(-c3nc4cc(C(=O)N5C[C@H](N)[C@@H]6CC[C@H]5C6)cc(F)c4n3C3CC3)n(CC3CC3)c2n1 [Example 233, N-((R)-1-(2-(5-((1S,4R,5R)-4-amino-2-azabicyclo[3.2.1]octane-2-carbonyl)-1-cyclopropyl-7-fluoro-1H-benzo[d]imidazol-2-yl)-1-(cyclopropylmethyl)-1H-pyrrolo[2,3-b]pyridin-6-yl)ethyl)-3-cyanobicyclo[1.1.1]pentane-1-carboxamide] |  | 78.2 |
| COc1cc(C(=O)N2C[C@H](N)[C@@H]3CC[C@H]2C3)cc2nc(-c3cc4ccc([C@@H](C)NC(=O)C5(OC)CC5)nc4n3CC3CC3)n(C)c12 [Example 322, N-((R)-1-(2-(5-((1S,4R,5R)-4-amino-2-azabicyclo[3.2.1]octane-2-carbonyl)-7-methoxy-1-methyl-1H-benzo[d]imidazol-2-yl)-1-(cyclopropylmethyl)-1H-pyrrolo[2,3-b]pyridin-6-yl)ethyl)-1-methoxycyclopropane-1-carboxamide] |  | 62 |
| COc1cc(C(=O)N2CCC[C@@H](N)C2)cc2nc(-c3cc4ccc(N(C)S(C)(=O)=O)cc4n3CC3CC3)n(C)c12 [Example 2, (R)-N-(2-(5-(3-aminopiperidine-1-carbonyl)-7-methoxy-1-methyl-1H-benzo[d]imidazol-2-yl)-1-(cyclopropylmethyl)-1H-indol-6-yl)-N-methylmethanesulfonamide] | 210 |  |
| COC(=O)N(C)c1ccc2cc(-c3nc4cc(C(=O)N5[C@H]6CC[C@@H]5[C@H](N)C6)cc(OC)c4n3C)n(CC3CC3)c2c1 [Example 114, methyl (2-(5-((1R,2R,4S)-2-amino-7-azabicyclo[2.2.1]heptane-7-carbonyl)-7-methoxy-1-methyl-1H-benzo[d]imidazol-2-yl)-1-(cyclopropylmethyl)-1H-indol-6-yl)(methyl)carbamate] | 34.5 |  |
| COc1cc(C(=O)N2C[C@H](N)[C@@H]3CC[C@H]2C3)cc2nc(-c3cc4ccc([C@@H](C)NC(=O)c5ccnc(Cl)c5)nc4n3CC3CC3)n(C)c12 [Example 298, N-((R)-1-(2-(5-((1S,4R,5R)-4-amino-2-azabicyclo[3.2.1]octane-2-carbonyl)-7-methoxy-1-methyl-1H-benzo[d]imidazol-2-yl)-1-(cyclopropylmethyl)-1H-pyrrolo[2,3-b]pyridin-6-yl)ethyl)-2-chloroisonicotinamide] |  | 86.4 |
| COc1cc(C(=O)N2CC3CCCC3(N)C2)cc2nc(-c3cc4ccc(N(C(F)F)S(C)(=O)=O)nc4n3CC3CC3)n(C)c12 (stereo not drawn) [Example 73, N-(2-(5-(3a-aminooctahydrocyclopenta[c]pyrrole-2-carbonyl)-7-methoxy-1-methyl-1H-benzo[d]imidazol-2-yl)-1-(cyclopropylmethyl)-1H-pyrrolo[2,3-b]pyridin-6-yl)-N-(difluoromethyl) methanesulfonamide] | 7200 |  |
| COc1cc(C(=O)N2CCC[C@@H](N)C2)cc2nc(-c3cc4ccc([C@@H](C)NC(=O)c5ccccc5)nc4n3CC3CC3)n(C3CC3)c12 [Example 126, N-((R)-1-(2-(5-((R)-3-aminopiperidine-1-carbonyl)-1-cyclopropyl-7-methoxy-1H-benzo[d]imidazol-2-yl)-1-(cyclopropylmethyl)-1H-pyrrolo[2,3-b]pyridin-6-yl)ethyl)benzamide] | 90.8 |  |
| COc1cc(C(=O)N2C[C@H](N)CCN2C)cc2nc(-c3cc4ccc([C@@H](C)NC(=O)c5cc(F)cc(F)c5)nc4n3CC3CC3)n(C)c12 [Example 156, N-((R)-1-(2-(5-((R)-5-amino-2-methylhexahydropyridazine-1-carbonyl)-7-methoxy-1-methyl-1H-benzo[d]imidazol-2-yl)-1-(cyclopropylmethyl)-1H-pyrrolo[2,3-b]pyridin-6-yl)ethyl)-3,5-difluorobenzamide] | 166 |  |
